Measured values taken from patent US20240059689A1, “PURINE DERIVATIVES AS ANTICANCER AGENTS” (Tango Therapeutics, Inc., priority 2021, published 2024).
pIC50: −log10 of the molar value.

Tests used:
HCC1954 = test: Viability assay, BRCA1 WT cell line HCC1954; type: cell-based; conditions: Homo sapiens, HCC1954, viability, read-out: HCC1954 rel IC50
From the text: (§1) Table 1 also indicates IC50 values in a viability assay for a non-isogenic pair of BRCA1 mutant (column 5-MDA-MB-436) and BRCA1 WT (column 6—HCC1954) cell lines. These values indicate the effect of treatment with compound on cell survival.

USP1-UAF1 = USP1-UAF1 (Homo sapiens, UniProt O94782); test: Ubiquitin Rhodamine assay of USP1-UAF1 activity; type: biochemical
Protocol: Certain compounds of the disclosure were assessed for USP1-UAF1 activity in a Ubiquitin Rhodamine assay as described in Biology Example 1.

monoubiquitinated PCNA = test: AlphaLISA assay measuring monoubiquitinated PCNA in MDA-MB-436; type: cell-based; conditions: Homo sapiens, MDA-MB-436, monoubiquitinated PCNA, read-out: Alpha Lisa IC50
From the text: Table 1 also indicates IC50 values for exemplary compounds in an AlphaLISA assay measuring monoubiquitinated PCNA in a BRCA1 mutant cell line (MDA-MB-436; column 7).

MDA-MB-436 = test: Viability assay, BRCA1 mutant cell line MDA-MB-436; type: cell-based; conditions: Homo sapiens, MDA-MB-436, viability, BRCA1 mutant MDA-MB-436; read-out: MDA-MB-436 rel IC50
From the text: as §1

Sequence of USP1-UAF1 (O94782 whole entry): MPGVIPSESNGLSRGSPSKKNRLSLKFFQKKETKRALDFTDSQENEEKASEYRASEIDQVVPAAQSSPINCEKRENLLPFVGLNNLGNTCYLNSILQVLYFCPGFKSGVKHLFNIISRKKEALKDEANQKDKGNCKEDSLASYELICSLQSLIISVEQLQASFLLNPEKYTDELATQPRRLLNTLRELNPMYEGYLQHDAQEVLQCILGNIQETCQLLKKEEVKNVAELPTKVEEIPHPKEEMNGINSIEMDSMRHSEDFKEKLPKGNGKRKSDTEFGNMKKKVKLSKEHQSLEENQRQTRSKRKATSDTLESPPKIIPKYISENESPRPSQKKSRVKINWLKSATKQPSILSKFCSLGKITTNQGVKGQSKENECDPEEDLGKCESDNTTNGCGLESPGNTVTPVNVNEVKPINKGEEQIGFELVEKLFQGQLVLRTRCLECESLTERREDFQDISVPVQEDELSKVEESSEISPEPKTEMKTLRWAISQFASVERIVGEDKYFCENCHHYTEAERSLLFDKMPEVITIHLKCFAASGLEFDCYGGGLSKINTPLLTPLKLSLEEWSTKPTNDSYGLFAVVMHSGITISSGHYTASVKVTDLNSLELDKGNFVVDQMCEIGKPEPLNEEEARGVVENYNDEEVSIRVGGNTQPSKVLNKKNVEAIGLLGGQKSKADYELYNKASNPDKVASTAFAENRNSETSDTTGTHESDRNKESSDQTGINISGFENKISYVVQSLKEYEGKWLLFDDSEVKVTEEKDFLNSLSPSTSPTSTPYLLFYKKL
Sequence of USP1-UAF1 (Q8TAF3 whole entry partner): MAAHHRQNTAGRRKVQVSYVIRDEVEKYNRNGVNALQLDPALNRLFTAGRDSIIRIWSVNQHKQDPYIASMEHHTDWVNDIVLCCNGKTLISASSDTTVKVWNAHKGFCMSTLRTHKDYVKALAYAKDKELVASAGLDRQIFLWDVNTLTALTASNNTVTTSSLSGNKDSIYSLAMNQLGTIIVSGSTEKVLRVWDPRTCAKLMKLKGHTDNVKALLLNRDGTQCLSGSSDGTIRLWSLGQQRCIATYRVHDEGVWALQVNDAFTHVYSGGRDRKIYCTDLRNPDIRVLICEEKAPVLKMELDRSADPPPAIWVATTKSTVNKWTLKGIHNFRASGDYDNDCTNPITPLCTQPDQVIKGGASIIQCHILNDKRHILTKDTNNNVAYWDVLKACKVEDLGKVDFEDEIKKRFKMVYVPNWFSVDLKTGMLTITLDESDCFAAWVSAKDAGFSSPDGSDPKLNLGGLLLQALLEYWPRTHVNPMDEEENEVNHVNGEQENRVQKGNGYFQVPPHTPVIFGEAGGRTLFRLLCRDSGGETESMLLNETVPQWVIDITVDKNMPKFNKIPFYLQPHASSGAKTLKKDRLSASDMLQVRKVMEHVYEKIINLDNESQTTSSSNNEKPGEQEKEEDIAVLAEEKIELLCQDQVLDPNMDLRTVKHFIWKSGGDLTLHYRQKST

SMILES	pIC50 (HCC1954)	pIC50 (USP1-UAF1)	pIC50 (monoubiquitinated PCNA)	pIC50 (MDA-MB-436)
Cc1cc(Cl)nn1-c1ccc(Cn2c(=N)n(C)c3cnc(-c4ccccc4C(C)C)nc32)cc1 [Example A-21, 9-(4-(3-chloro-5-methyl-1H-pyrazol-1-yl)benzyl)-2-(2-isopropylphenyl)-7-methyl-7,9-dihydro-8H-purin-8-imine]	5.00 to 6.60	> 7.52	> 7.00	> 7.00
CC(C)c1ccccc1-c1ncc2c(n1)n(Cc1ccc(-c3nc(C(F)(F)F)cs3)cc1)c(=N)n2C [Example A-25, 2-(2-isopropylphenyl)-7-methyl-9-(4-(4-(trifluoromethyl)thiazol-2-yl)benzyl)-7,9-dihydro-8H-purin-8-imine]	5.00 to 6.60	7.00 to 7.52	5.00 to 6.60	5.00 to 6.60
Cc1nc(-c2cc(F)ccc2C(C)C)nc2c1n(C)c(=N)n2Cc1ccc(-c2nc(Cl)cn2C)cc1 [Example A-27, 9-(4-(4-chloro-1-methyl-1H-imidazol-2-yl)benzyl)-2-(5-fluoro-2-isopropylphenyl)-6,7-dimethyl-7,9-dihydro-8H-purin-8-imine]	5.00 to 6.60	> 7.52	6.60 to 7.00	5.00 to 6.60
Cc1nc(-c2ccccc2Cl)nc2c1n(C)c(=N)n2Cc1ccc(-c2nc(Cl)cn2C)cc1 [Example A-36, 9-(4-(4-chloro-1-methyl-1H-imidazol-2-yl)benzyl)-2-(2-chlorophenyl)-6,7-dimethyl-7,9-dihydro-8H-purin-8-imine]	≤ 5.00	5.00 to 7.00	5.00 to 6.60	5.00 to 6.60
COc1cc(Cn2c(=N)n(C)c3cnc(-c4ccccc4C(C)C)nc32)ccc1-c1nc(C(F)(F)F)cn1C [Example A-37, 2-(2-isopropylphenyl)-9-(3-methoxy-4-(1-methyl-4-(trifluoromethyl)-1H-imidazol-2-yl)benzyl)-7-methyl-7,9-dihydro-8H-purin-8-imine]	≤ 5.00	> 7.52	6.60 to 7.00	5.00 to 6.60
Cc1nc(-c2ccccc2C(C)C)nc2c1n(C)c(=N)n2Cc1ccc(-c2nc(Cl)cn2C)cc1 [Example A-38, 9-(4-(4-chloro-1-methyl-1H-imidazol-2-yl)benzyl)-2-(2-isopropylphenyl)-6,7-dimethyl-7,9-dihydro-8H-purin-8-imine]	5.00 to 6.60	> 7.52	> 7.00	> 7.00
CC(C)c1ccccc1-c1nc(C(N)=O)c2c(n1)n(Cc1ccc(-c3nc(C(F)(F)F)cn3C)cc1)c(=N)n2C [Example A-41, 8-imino-2-(2-isopropylphenyl)-7-methyl-9-(4-(1-methyl-4-(trifluoromethyl)-1H-imidazol-2-yl)benzyl)-8,9-dihydro-7H-purine-6-carboxamide]	5.00 to 6.60	7.00 to 7.52	5.00 to 6.60	5.00 to 6.60
C=C(C)c1ccc(F)cc1-c1nc(C)c2c(n1)n(Cc1ccc(-c3nc(C(F)(F)F)cn3C)cc1)c(=N)n2C [Example A-42, 2-(5-fluoro-2-(prop-1-en-2-yl)phenyl)-6,7-dimethyl-9-(4-(1-methyl-4-(trifluoromethyl)-1H-imidazol-2-yl)benzyl)-7,9-dihydro-8H-purin-8-imine]	5.00 to 6.60	7.00 to 7.52	6.60 to 7.00	5.00 to 6.60

Now from value to compound:

pIC50 (HCC1954)	pIC50 (USP1-UAF1)	pIC50 (monoubiquitinated PCNA)	pIC50 (MDA-MB-436)	SMILES
5.00 to 6.60	> 7.52	5.00 to 6.60	5.00 to 6.60	CC(C)c1ccccc1-c1nc(C2CC2)c2c(n1)n(Cc1ccc(-c3nc(C(F)(F)F)cn3C)cc1)c(=N)n2C [Example A-23, 6-cyclopropyl-2-(2-isopropylphenyl)-7-methyl-9-(4-(1-methyl-4-(trifluoromethyl)-1H-imidazol-2-yl)benzyl)-7,9-dihydro-8H-purin-8-imine]
5.00 to 6.60	7.00 to 7.52	5.00 to 6.60	5.00 to 6.60	CC(C)c1ccccc1-c1ncc2c(n1)n(Cc1ccc(-n3ccc(C(F)(F)F)n3)cc1)c(=N)n2C [Example A-24, 2-(2-isopropylphenyl)-7-methyl-9-(4-(3-(trifluoromethyl)-1H-pyrazol-1-yl)benzyl)-7,9-dihydro-8H-purin-8-imine]
≤ 5.00	> 7.52	> 7.00	> 7.00	Cc1nc(-c2cccc(F)c2C(C)C)nc2c1n(C)c(=N)n2Cc1ccc(-c2nc(Cl)cn2C)cc1 [Example A-28, 9-(4-(4-chloro-1-methyl-1H-imidazol-2-yl)benzyl)-2-(3-fluoro-2-isopropylphenyl)-6,7-dimethyl-7,9-dihydro-8H-purin-8-imine]
≤ 5.00	> 7.52	> 7.00	> 7.00	CC(C)c1ccccc1-c1ncc2c(n1)n(Cc1ccc(-c3nc(C(F)(F)F)cn3C)cc1F)c(=N)n2C [Example A-29, 9-(2-fluoro-4-(1-methyl-4-(trifluoromethyl)-1H-imidazol-2-yl)benzyl)-2-(2-isopropylphenyl)-7-methyl-7,9-dihydro-8H-purin-8-imine]
5.00 to 6.60	> 7.52	> 7.00	> 7.00	C=C(C)c1c(F)cccc1-c1nc(C)c2c(n1)n(Cc1ccc(-c3nc(Cl)cn3C)cc1)c(=N)n2C [Example A-30, 9-(4-(4-chloro-1-methyl-1H-imidazol-2-yl)benzyl)-2-(3-fluoro-2-(prop-1-en-2-yl)phenyl)-6,7-dimethyl-7,9-dihydro-8H-purin-8-imine]
5.00 to 6.60	> 7.52	> 7.00	> 7.00	C=C(C)c1c(F)cccc1-c1nc(C)c2c(n1)n(Cc1ccc(-c3nc(C(F)(F)F)cn3C)cc1)c(=N)n2C [Example A-31, 2-(3-fluoro-2-(prop-1-en-2-yl)phenyl)-6,7-dimethyl-9-(4-(1-methyl-4-(trifluoromethyl)-1H-imidazol-2-yl)benzyl)-7,9-dihydro-8H-purin-8-imine]
5.00 to 6.60	> 7.52	> 7.00	6.60 to 7.00	CC(C)c1ccccc1-c1ncc2c(n1)n(Cc1ccc(-c3nc(C(F)(F)F)cn3C)cc1)c(=N)n2C1CCC1 [Example A-34, 7-cyclobutyl-2-(2-isopropylphenyl)-9-(4-(1-methyl-4-(trifluoromethyl)-1H-imidazol-2-yl)benzyl)-7,9-dihydro-8H-purin-8-imine]
5.00 to 6.60	7.00 to 7.52	6.60 to 7.00	5.00 to 6.60	CC(C)c1ccccc1-c1nc(-c2ccccn2)c2c(n1)n(Cc1ccc(-c3nc(C(F)(F)F)cn3C)cc1)c(=N)n2C [Example A-35, 2-(2-isopropylphenyl)-7-methyl-9-(4-(1-methyl-4-(trifluoromethyl)-1H-imidazol-2-yl)benzyl)-6-(pyridin-2-yl)-7,9-dihydro-8H-purin-8-imine]
5.00 to 6.60	7.00 to 7.52	5.00 to 6.60	5.00 to 6.60	C=C(C)c1ccc(F)cc1-c1nc(C)c2c(n1)n(Cc1ccc(-c3nc(Cl)cn3C)cc1)c(=N)n2C [Example A-44, 9-(4-(4-chloro-1-methyl-1H-imidazol-2-yl)benzyl)-2-(5-fluoro-2-(prop-1-en-2-yl)phenyl)-6,7-dimethyl-7,9-dihydro-8H-purin-8-imine]
5.00 to 6.60	5.00 to 7.00	6.60 to 7.00	6.60 to 7.00	CC(C)c1ccccc1-c1ncc2c(n1)n(CC1CCN(c3nc(C(F)(F)F)cn3C)CC1)c(=N)n2C [Example B-1, 2-(2-isopropylphenyl)-7-methyl-9-((1-(1-methyl-4-(trifluoromethyl)-1H-imidazol-2-yl)piperidin-4-yl)methyl)-7H-purin-8(9H)-imine]
